# Assays:
# [1] = tested on: BV-173; assay: MTT cell viability assay, BV-173; type: cell-based, human; conditions: 72 h, ± standard deviation
# Experimental: (§1) Cell viability was determined using the MTT colorimetric assay. […] Statistical significance was determined at p ≤ 0.05.
# [2] = tested on: K-562; assay: MTT cell viability assay, K-562; type: cell-based, human; conditions: 72 h, ± standard deviation
# Experimental: as §1
# [3] = tested on: AR-230; assay: MTT cell viability assay, AR-230; type: cell-based, human; conditions: 72 h, ± standard deviation
# Experimental: as §1
# [4] = tested on: LAMA-84; assay: MTT cell viability assay, LAMA-84; type: cell-based, human; conditions: 72 h, ± standard deviation
# Experimental: as §1
# [5] = tested on: CCL-1; assay: MTT cell viability assay, normal fibroblasts CCL-1; type: cell-based, murine; conditions: 72 h, non-malignant fibroblasts, ± standard deviation
# Experimental: as §1
# [6] = MTT cell viability assay, normal fibroblasts CCL-1; type: cell-based, murine; conditions: mouse, CCL-1 normal fibroblast cells, non-malignant fibroblasts, ± standard deviation
# Experimental: as §1
# [7] = tested on: MDA-MB-231; parameters: method as in doi:10.2533/chimia.2007.716; conditions: hormone-independent breast cancer cells; cited from earlier work
smiles,measurement,setting,value
"Cc1cn(-c2cc(NC(=O)c3ccc(C)c(Nc4nccc(-[c-]5cccc5)n4)c3)cc(C(F)(F)F)c2)cn1.[Fe+2].c1cc[cH-]c1 [Compound 9, 4-Methyl-N-(3-(4-methyl-1H-imidazol-1-yl)-5-(trifluoromethyl)phenyl)-3-((4-ferrocenylpyrimidin-2-yl)amino)benzamide]",IC50,[1],33.6 ± 2.3 µM
same,IC50,[2],25.9 ± 2.9 µM
same,IC50,[3],144 ± 10.6 µM
same,IC50,[4],25.4 ± 2.4 µM
same,IC50,[5],> 200 µM
"Cc1ccc(NC(=O)c2ccc(CN3CCN(C)CC3)cc2)cc1Nc1nccc(-c2cccnc2)n1 [imatinib, reference compound]",IC50 at 72 h,[6],> 200 µM
CC/C(=C(\c1ccc(O)cc1)c1ccc(OCCN(C)C)cc1)c1ccccc1 [Hydroxy-tamoxifen],IC50,[7],30 µM
"Cc1ccc(NC(=O)c2ccc(CN3CCN(C)CC3)cc2)cc1Nc1nccc(-[c-]2cccc2)n1.[Fe+2].c1cc[cH-]c1 [Compound 6, N-(4-Methyl-3-((4-ferrocenylpyrimidin-2-yl)amino)phenyl)-4-((4-methylpiperazin-1-yl)methyl)benzamide]",IC50,[1],33.6 ± 2.1 µM
same,IC50,[2],29.9 ± 3.1 µM
same,IC50,[3],5.9 ± 0.2 µM
same,IC50,[4],25.4 ± 2.9 µM
same,IC50,[5],55.7 ± 9.5 µM
"Cc1ccc(NC(=O)[c-]2cccc2)cc1Nc1nccc(-c2cccnc2)n1.[Fe+2].c1cc[cH-]c1 [Compound 14, N-(4-Methyl-3-((4-(pyridin-3-yl)pyrimidin-2-yl)amino)phenyl)ferrocenecarboxamide]",IC50,[1],17.9 ± 3.1 µM
same,IC50,[2],> 200 µM
same,IC50,[3],5.1 ± 1.3 µM
same,IC50,[4],27.3 ± 1.8 µM
same,IC50,[5],> 200 µM
CCC(=C(c1ccc(O)cc1)c1ccc(OCCCN(C)C)cc1)[c-]1cccc1.[Fe+2].c1cc[cH-]c1 [Hydroxy-ferrocifen],IC50,[7],0.5 µM
"Cc1ccc(C(=O)N[c-]2cccc2)cc1Nc1nccc(-c2cccnc2)n1.[Fe+2].c1cc[cH-]c1 [Compound 18, N-Ferrocenyl-4-methyl-3-((4-(pyridin-3-yl)pyrimidin-2-yl)amino)benzamide]",IC50,[1],15.1 ± 2.9 µM
same,IC50,[2],> 200 µM
same,IC50,[3],5.1 ± 0.9 µM
same,IC50,[4],26.8 ± 3.2 µM
same,IC50,[5],60.2 ± 8.3 µM

# Source: PMC12348835, “Design, Docking Analysis, and Structure–Activity Relationship of Ferrocene-Modified Tyrosine Kinase Inhibitors: Insights into BCR-ABL Interactions” (Molecules, 2025)
